Measured values as given in patent publication US9908868B2, “Isoindolinone compounds as GPR119 modulators for the treatment of diabetes, obesity, dyslipidemia and related disorders” (SANOFI, priority 2014, dated 2018).

target: T1, human GPR119 (Homo sapiens, UniProt Q8TDV5); assay: Functional cellular assay measuring GPR119-mediated cAMP release (HTRF) in HEK-293 cells stably expressing recombinant human GPR119; format: cell-based; details: cAMP response, cell line expressing human GPR119, 30 minutes at room temperature
T1 construct: expressed in transfected cells
T1 sequence (Q8TDV5 1-335): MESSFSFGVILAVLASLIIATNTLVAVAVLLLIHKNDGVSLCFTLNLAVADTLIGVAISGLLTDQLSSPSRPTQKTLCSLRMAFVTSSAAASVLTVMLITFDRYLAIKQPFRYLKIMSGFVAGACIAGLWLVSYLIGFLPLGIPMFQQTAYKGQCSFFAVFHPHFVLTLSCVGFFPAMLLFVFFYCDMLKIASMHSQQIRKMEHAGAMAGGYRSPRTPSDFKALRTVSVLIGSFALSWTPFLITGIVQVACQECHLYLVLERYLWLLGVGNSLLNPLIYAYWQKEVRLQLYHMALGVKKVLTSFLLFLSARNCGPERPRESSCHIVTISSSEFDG
Procedure: Functional Cellular Assays Measuring GPR119-Mediated cAMP Release
Compounds of the invention, which are agonists of GPR119, were characterized by functional assays measuring the cAMP response of HEK-293 cell lines stably expressing recombinant GPR119 from man, mouse or rat, or by using a hamster cell line HIT-T15 expressing GPR119 endogenously. The cAMP content was determined using a kit based on homogenous time-resolved fluorescence (HTRF) from Cisbio Corp. (cat. no. 62AM4PEC). For preparation, cells were split into T175 culture flasks and grown to near confluency in medium (DMEM/10% FCS for HEK-293 cells, and F-12K medium/10% horse serum/2.5% FCS for HIT-T15 cells, respectively). Medium was then removed and cells washed with PBS lacking calcium and magnesium ions, followed by proteinase treatment with accutase (Sigma-Aldrich, cat. no. A6964). Detached cells were washed and resuspended in assay buffer (1×HBSS; 20 mM HEPES, 0.1% BSA, 2 mM IBMX) and cellular density determined. They were then diluted to 400000 cells/mL and 25 μL-aliquots dispensed to the wells of 96-well plates. For measurement, 25 μL of test compound in assay buffer was added and incubated for 30 minutes at room temperature. After addition of HTRF reagents diluted in lysis buffer, the plates were incubated for 1 hour, followed by measuring the fluorescence ratio at 665 vs. 620 nm. Potency of the agonists was quantified by determining the concentrations that caused 50% of the maximal response/activation (EC50). See Table 7 for exemplary data obtained using the cell line expressing human GPR119.

SMILES	EC50
CN(C)C(=O)CN1Cc2ccc(N3CC[C@@H](Oc4ccc(C(=O)N5CCCC5)cc4)C3=O)cc2C1=O [Example 2-35, N,N-dimethyl-2-[1-oxo-6-[(3R)-2-oxo-3-[4-(pyrrolidine-1-carbonyl)phenoxy]pyrrolidin-1-yl]isoindolin-2-yl]acetamide]	8660 nM
COCCNC(=O)CN1Cc2c(F)cc(N3CC[C@@H](Oc4ccc(OCC5CC5)nc4)C3=O)cc2C1=O [Example 4-23, 2-[6-[(3R)-3-[[6-(cyclopropylmethoxy)-3-pyridyl]oxy]-2-oxo-pyrrolidin-1-yl]-4-fluoro-1-oxo-isoindolin-2-yl]-N-(2-methoxyethyl)acetamide]	157 nM
CCOc1ccc(O[C@@H]2CCN(c3cc(F)c4c(c3)C(=O)N(CC#N)C4)C2=O)cn1 [Example 5-01, 2-[6-[(3R)-3-[(6-ethoxy-3-pyridyl)oxy]-2-oxo-pyrrolidin-1-yl]-4-fluoro-1-oxo-isoindolin-2-yl]acetonitrile]	67 nM
CN(C)C(=O)CN1Cc2ccc(N3CC[C@@H](Oc4ccc(S(F)(F)(F)(F)F)cc4)C3=O)cc2C1=O [Example 2-27, N,N-dimethyl-2-[1-oxo-6-[(3R)-2-oxo-3-[4-(pentafluoro-λ{6}-sulfanyl)phenoxy]pyrrolidin-1-yl]isoindolin-2-yl]acetamide]	160 nM
CCOc1ccc(O[C@@H]2CCN(c3cc(F)c4c(c3)C(=O)N(CC(=O)N3CCC(O)CC3)C4)C2=O)cn1 [Example 4-19, 6-[(3R)-3-[(6-ethoxy-3-pyridyl)oxy]-2-oxo-pyrrolidin-1-yl]-4-fluoro-2-[2-(4-hydroxy-1-piperidyl)-2-oxo-ethyl]isoindolin-1-one]	297 nM
O=C(O)CNC(=O)CN1Cc2ccc(N3CC[C@@H](Oc4ccc(OCC5CC5)nc4)C3=O)cc2C1=O [Example 3-04, 2-[[2-[6-[(3R)-3-[[6-(cyclopropylmethoxy)-3-pyridyl]oxy]-2-oxo-pyrrolidin-1-yl]-1-oxo-isoindolin-2-yl]acetyl]amino]acetic acid]	807 nM
O=C(CN1Cc2ccc(N3CC[C@@H](Oc4ccc(OCC5CC5)nc4)C3=O)cc2C1=O)NC(CO)CO [Example 4-32, 2-[6-[(3R)-3-[[6-(cyclopropylmethoxy)-3-pyridyl]oxy]-2-oxo-pyrrolidin-1-yl]-1-oxo-isoindolin-2-yl]-N-[2-hydroxy-1-(hydroxymethyl)ethyl]acetamide]	448 nM
O=C(CN1Cc2ccc(N3CC[C@@H](Oc4ccc(OCC(F)(F)F)nc4)C3=O)cc2C1=O)NC1CC1 [Example 4-36, N-cyclopropyl-2-[1-oxo-6-[(3R)-2-oxo-3-[[6-(2,2,2-trifluoroethoxy)-3-pyridyl]oxy]pyrrolidin-1-yl]isoindolin-2-yl]acetamide]	562 nM
CCCCC(=O)c1ccc(O[C@@H]2CCN(c3ccc4c(c3)C(=O)N(CC(N)=O)C4)C2=O)cc1 [Example 2-54, 2-[1-oxo-6-[(3R)-2-oxo-3-(4-pentanoylphenoxy)pyrrolidin-1-yl]isoindolin-2-yl]acetamide]	38 nM
CCOc1ccc(O[C@@H]2CCN(c3cc(F)c4c(c3)C(=O)N(CC(=O)NC)C4)C2=O)cn1 [Example 4-13, 2-[6-[(3R)-3-[(6-ethoxy-3-pyridyl)oxy]-2-oxo-pyrrolidin-1-yl]-4-fluoro-1-oxo-isoindolin-2-yl]-N-methyl-acetamide]	326 nM
CN(C)C(=O)CN1Cc2ccc(N3CC[C@@H](Oc4ccc(O[C@H]5C[C@@H]6C[C@@H]6C5)nc4)C3=O)cc2C1=O [Example 2-03, 2-[6-[(3R)-3-[[6-[[(1S,5R)-3-bicyclo[3.1.0]hexanyl]oxy]-3-pyridyl]oxy]-2-oxo-pyrrolidin-1-yl]-1-oxo-isoindolin-2-yl]-N,N-dimethyl-acetamide]	54 nM
CN(C)C(=O)CN1Cc2ccc(N3CC[C@@H](Oc4ccc(N5CCOCC5)cc4)C3=O)cc2C1=O [Example 2-24, N,N-dimethyl-2-[6-[(3R)-3-(4-morpholinophenoxy)-2-oxo-pyrrolidin-1-yl]-1-oxo-isoindolin-2-yl]acetamide]	21000 nM
CN(C)C(=O)CN1Cc2ccc(N3CC[C@@H](Oc4ccc(C(=O)C5CC5(F)F)cc4)C3=O)cc2C1=O (stereo partly drawn) [Example 2-65, 2-[6-[(3R)-3-[4-(2,2-difluorocyclopropanecarbonyl)phenoxy]-2-oxo-pyrrolidin-1-yl]-1-oxo-isoindolin-2-yl]-N,N-dimethyl-acetamide]	125 nM
CC1(CN2Cc3c(F)cc(N4CC[C@@H](Oc5ccc(OCCC6CC6)nc5)C4=O)cc3C2=O)COC1 [Example 5-03, 6-[(3R)-3-[[6-(2-cyclopropylethoxy)-3-pyridyl]oxy]-2-oxo-pyrrolidin-1-yl]-4-fluoro-2-[(3-methyloxetan-3-yl)methyl]isoindolin-1-one]	2530 nM

Other lines, results leading:

EC50	SMILES
151 nM	O=C1OCCC1N1Cc2ccc(N3CC[C@@H](Oc4ccc(OCC5CC5)nc4)C3=O)cc2C1=O (stereo partly drawn) [Example 1-06, 6-[(3R)-3-[[6-(cyclopropylmethoxy)-3-pyridyl]oxy]-2-oxo-pyrrolidin-1-yl]-2-(2-oxotetrahydrofuran-3-yl)isoindolin-1-one]
30 nM	CS(=O)(=O)CN1Cc2c(F)cc(N3CC[C@@H](Oc4ccc(OCC5CC5)nc4)C3=O)cc2C1=O [Example 1-17, 6-[(3R)-3-[[6-(cyclopropylmethoxy)-3-pyridyl]oxy]-2-oxo-pyrrolidin-1-yl]-4-fluoro-2-(methylsulfonylmethyl)isoindolin-1-one]
862 nM	CN(C)C(=O)CN1Cc2ccc(N3CC[C@@H](Oc4ccc(-c5cnco5)cc4)C3=O)cc2C1=O [Example 2-37, N,N-dimethyl-2-[6-[(3R)-3-(4-oxazol-5-ylphenoxy)-2-oxo-pyrrolidin-1-yl]-1-oxo-isoindolin-2-yl]acetamide]
82 nM	CN(C)C(=O)CN1Cc2ccc(N3CC[C@@H](Oc4cnc(OCC5CC5)c(F)c4)C3=O)cc2C1=O [Example 2-06, 2-[6-[(3R)-3-[[6-(cyclopropylmethoxy)-5-fluoro-3-pyridyl]oxy]-2-oxo-pyrrolidin-1-yl]-1-oxo-isoindolin-2-yl]-N,N-dimethyl-acetamide]
50 nM	CN(C)C(=O)CN1Cc2ccc(N3CC[C@@H](Oc4ccc(C(=O)CCC5CC5)nc4)C3=O)cc2C1=O [Example 2-57, 2-[6-[(3R)-3-[[6-(3-cyclopropylpropanoyl)-3-pyridyl]oxy]-2-oxo-pyrrolidin-1-yl]-1-oxo-isoindolin-2-yl]-N,N-dimethyl-acetamide]
44 nM	COC(=O)CN1Cc2ccc(N3CC[C@@H](Oc4ccc(OCC5CC5)nc4)C3=O)cc2C1=O [Example 1-40, methyl 2-[6-[(3R)-3-[[6-(cyclopropylmethoxy)-3-pyridyl]oxy]-2-oxo-pyrrolidin-1-yl]-1-oxo-isoindolin-2-yl]acetate]
> 100000 nM	CCOc1ccc(O[C@@H]2CCN(c3cc(F)c4c(c3)C(=O)N(C(C)(C)C)C4)C2=O)cn1 [Example 1-30, 2-tert-butyl-6-[(3R)-3-[(6-ethoxy-3-pyridyl)oxy]-2-oxo-pyrrolidin-1-yl]-4-fluoro-isoindolin-1-one]
221 nM	COC(=O)CN1C(=O)c2cc(N3CC[C@@H](Oc4ccc(OCC5CC5)nc4)C3=O)ccc2C1C (stereo partly drawn) [Example 1-15, methyl 2-[5-[(3R)-3-[[6-(cyclopropylmethoxy)-3-pyridyl]oxy]-2-oxo-pyrrolidin-1-yl]-1-methyl-3-oxo-isoindolin-2-yl]acetate]
41 nM	CN(C)C(=O)CN1Cc2ccc(N3CC[C@@H](Oc4ccc(SC(F)(F)F)cc4)C3=O)cc2C1=O [Example 2-22, N,N-dimethyl-2-[1-oxo-6-[(3R)-2-oxo-3-[4-(trifluoromethylsulfanyl)phenoxy]pyrrolidin-1-yl]isoindolin-2-yl]acetamide]
106 nM	CN(C)C(=O)CN1Cc2ccc(N3CC[C@@H](Oc4ccc(OC(F)(F)F)cc4)C3=O)cc2C1=O [Example 2-01, N,N-dimethyl-2-[1-oxo-6-[(3R)-2-oxo-3-[4-(trifluoromethoxy)phenoxy]pyrrolidin-1-yl]isoindolin-2-yl]acetamide]
14200 nM	CN(C)C(=O)Cn1c(=O)c2cc(N3CC[C@H](Oc4ccc(OCC5CC5)nc4)C3=O)ccc2n1C [Example 1-26, 2-[5-[(3S)-3-[[6-(cyclopropylmethoxy)-3-pyridyl]oxy]-2-oxo-pyrrolidin-1-yl]-1-methyl-3-oxo-indazol-2-yl]-N,N-dimethyl-acetamide]
12000 nM	CN(C)C(=O)CN1Cc2ccc(N3CC[C@@H](Oc4ccc(-n5cncn5)cc4)C3=O)cc2C1=O [Example 2-25, N,N-dimethyl-2-[1-oxo-6-[(3R)-2-oxo-3-[4-(1,2,4-triazol-1-yl)phenoxy]pyrrolidin-1-yl]isoindolin-2-yl]acetamide]
